Source: patent US10932480B2, “Animal feed additive containing diurnosid and/or cestrumosid” (priority 2016, dated 2021)

Tested on: broilers
Test: Field test in broilers, diurnoside/cestrumoside plus vitamin D3 metabolites (Example 1)
Format: in vivo
Details: in combination with diurnoside or cestrumoside versus control groups with calcitriol or calcifediol alone, FIG. 1
From the text: In a commercial boiler feeding operation, five stalls each with approximate 43,000 animals were compared with regard to the incidence of osteochondrosis/dyschondroplasia in a field test. All the stalls were fed using conventional boiler fattening feed, distributed under the brand name GeflügelmastKorn® (Company: Garant Tiernahrung [Garant Animal Nutrition]), wherein no further additives were used in stall K1 (controls).
For stall K2 (control group calcitriol), a feed additive containing 20 ppm calcitriol in an amount of 150 ppm (based on feed with 88% dry solids) was mixed into the broiler fattening feed.
For stall K2 (control group calcifediol), a feed additive containing 200 ppm calcifediol in an amount of 150 ppm (based on feed with 88% dry solids) was mixed into the broiler fattening feed.
For stall V1 (experimental group with diurnoside plus calcitriol), the feed additive according to the invention, containing 100 ppm diurnoside and 10 ppm calcitriol was mixed into the boiler fattening feed in an amount of 150 ppm (based on feed with 88% dry solids).
For the stall V2 (experimental group with cestrumoside plus calcifediol), the feed additive according to the invention, containing 20 ppm cestrumoside and 100 ppm calcifediol in an amount of 150 ppm (based on feed with 88% dry solids) was mixed into the broiler fattening feed. […]

C=C1CC[C@H](O)C/C1=C/C=C1\CCC[C@]2(C)[C@@H]([C@H](C)CCCC(C)(C)O)CC[C@@H]12 [calcifediol]
effective doses for calcitriol and calcifediol: reduced by one-half

C=C1/C(=C\C=C2/CCC[C@]3(C)[C@@H]([C@H](C)CCCC(C)(C)O)CC[C@@H]23)C[C@@H](O)C[C@@H]1O [calcitriol]
effective doses for calcitriol and calcifediol: reduced by one-half
